# From PubChem BioAssay (NCI)
#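 Compound exposure: 48 hours, 5 concentrations, 96-well plates. At the GI50, growth is halved. TGI: concentration producing complete growth inhibition.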
# Assays:
# Test in all cases: NCI anticancer screen, dose series, 48 h
# 786-0 renal = test system: 786-0 renal
# A498 renal = test system: A498 renal
# A549 NSCLC = test system: A549 NSCLC
# ACHN renal = test system: ACHN renal
# BT-549 breast = test system: BT-549 breast
# CCRF-CEM leukemia = test system: CCRF-CEM leukemia
# COLO 205 colon = test system: COLO 205 colon
# DU-145 prostate = test system: DU-145 prostate
# EKVX NSCLC = test system: EKVX NSCLC
# HCC-2998 colon = test system: HCC-2998 colon
# HCT-116 colon = test system: HCT-116 colon
# HCT-15 colon = test system: HCT-15 colon
# HL-60(TB) leukemia = test system: HL-60(TB) leukemia
# HOP-62 NSCLC = test system: HOP-62 NSCLC
# HOP-92 NSCLC = test system: HOP-92 NSCLC
# HS 578T breast = test system: HS 578T breast
# HT29 colon = test system: HT29 colon
# IGROV1 ovarian = test system: IGROV1 ovarian
# K-562 leukemia = test system: K-562 leukemia
# KM12 colon = test system: KM12 colon
# LOX IMVI melanoma = test system: LOX IMVI melanoma
# M14 melanoma = test system: M14 melanoma
# MALME-3M melanoma = test system: MALME-3M melanoma
# MCF7 breast = test system: MCF7 breast
# MDA-MB-231 breast = test system: MDA-MB-231 breast
# MDA-MB-435 = test system: MDA-MB-435
# MOLT-4 leukemia = test system: MOLT-4 leukemia
# NCI-H226 lung = test system: NCI-H226 lung
# NCI-H23 lung = test system: NCI-H23 lung
# NCI-H460 lung = test system: NCI-H460 lung
# NCI-H522 lung = test system: NCI-H522 lung
# NCI/ADR-RES ovarian = test system: NCI/ADR-RES ovarian
# OVCAR-3 ovarian = test system: OVCAR-3 ovarian
# OVCAR-4 ovarian = test system: OVCAR-4 ovarian
# OVCAR-5 ovarian = test system: OVCAR-5 ovarian
# OVCAR-8 ovarian = test system: OVCAR-8 ovarian
# PC-3 prostate = test system: PC-3 prostate
# RPMI-8226 leukemia = test system: RPMI-8226 leukemia
# RXF 393 renal = test system: RXF 393 renal
# SF-268 CNS = test system: SF-268 CNS
# SF-295 CNS = test system: SF-295 CNS
# SF-539 CNS = test system: SF-539 CNS
# SK-MEL-2 melanoma = test system: SK-MEL-2 melanoma
# SK-MEL-28 melanoma = test system: SK-MEL-28 melanoma
# SK-MEL-5 melanoma = test system: SK-MEL-5 melanoma
# SK-OV-3 ovarian = test system: SK-OV-3 ovarian
# SN12C renal = test system: SN12C renal
# SNB-19 CNS = test system: SNB-19 CNS
# SNB-75 CNS = test system: SNB-75 CNS
# SR leukemia = test system: SR leukemia
# SW-620 colon = test system: SW-620 colon
# T-47D breast = test system: T-47D breast
# TK-10 renal = test system: TK-10 renal
# U251 CNS = test system: U251 CNS
# UACC-257 melanoma = test system: UACC-257 melanoma
# UACC-62 melanoma = test system: UACC-62 melanoma
# UO-31 renal = test system: UO-31 renal
structure (smiles),measurement,setting,value
CC1=C[C@H]2O[C@@H]3C[C@H]4OC(=O)/C=C\C=C\[C@H]([C@@H](C)O)OCC/C(C)=C/C(=O)OC[C@@]2(CC1)[C@]4(C)[C@]31CO1,GI50,786-0 renal,3.93 nM
same,TGI,786-0 renal,24.9 nM
same,GI50,A498 renal,5.33 nM
same,TGI,A498 renal,14.1 nM
same,GI50,A549 NSCLC,5.26 nM
same,TGI,A549 NSCLC,32.9 nM
same,GI50,ACHN renal,8.52 nM
same,TGI,ACHN renal,65 nM
same,GI50,BT-549 breast,3.87 nM
same,TGI,BT-549 breast,10.8 nM
same,GI50,CCRF-CEM leukemia,4.25 nM
same,TGI,CCRF-CEM leukemia,14300 nM
same,GI50,COLO 205 colon,7.33 nM
same,TGI,COLO 205 colon,18.9 nM
same,GI50,DU-145 prostate,4.11 nM
same,TGI,DU-145 prostate,13.9 nM
same,GI50,EKVX NSCLC,7.64 nM
same,TGI,EKVX NSCLC,52.4 nM
same,GI50,HCC-2998 colon,3.47 nM
same,TGI,HCC-2998 colon,12.1 nM
same,GI50,HCT-116 colon,2.37 nM
same,TGI,HCT-116 colon,8.21 nM
same,GI50,HCT-15 colon,3.71 nM
same,TGI,HCT-15 colon,23.6 nM
same,GI50,HL-60(TB) leukemia,2.39 nM
same,TGI,HL-60(TB) leukemia,6.84 nM
same,GI50,HOP-62 NSCLC,6.42 nM
same,TGI,HOP-62 NSCLC,26.3 nM
same,GI50,HOP-92 NSCLC,11.6 nM
same,TGI,HOP-92 NSCLC,84.3 nM
same,GI50,HS 578T breast,7.34 nM
same,TGI,HS 578T breast,29.8 nM
same,GI50,HT29 colon,4.26 nM
same,TGI,HT29 colon,18.8 nM
same,GI50,IGROV1 ovarian,4.4 nM
same,TGI,IGROV1 ovarian,41.7 nM
same,GI50,K-562 leukemia,2.92 nM
same,TGI,K-562 leukemia,14300 nM
same,GI50,KM12 colon,6.25 nM
same,TGI,KM12 colon,132 nM
same,GI50,LOX IMVI melanoma,2.77 nM
same,TGI,LOX IMVI melanoma,10.6 nM
same,GI50,M14 melanoma,2.78 nM
same,TGI,M14 melanoma,6.22 nM
same,GI50,MALME-3M melanoma,3.23 nM
same,TGI,MALME-3M melanoma,11.2 nM
same,GI50,MCF7 breast,2.76 nM
same,TGI,MCF7 breast,18.9 nM
same,GI50,MDA-MB-231 breast,17.4 nM
same,TGI,MDA-MB-231 breast,77.5 nM
same,GI50,MDA-MB-435,7.94 nM
same,TGI,MDA-MB-435,31.9 nM
same,GI50,MOLT-4 leukemia,2.38 nM
same,TGI,MOLT-4 leukemia,469 nM
same,GI50,NCI-H226 lung,3.23 nM
same,TGI,NCI-H226 lung,17.7 nM
same,GI50,NCI-H23 lung,6.14 nM
same,TGI,NCI-H23 lung,27 nM
same,GI50,NCI-H460 lung,2.46 nM
same,TGI,NCI-H460 lung,6.92 nM
same,GI50,NCI-H522 lung,2.63 nM
same,TGI,NCI-H522 lung,10.6 nM
same,GI50,NCI/ADR-RES ovarian,10.8 nM
same,TGI,NCI/ADR-RES ovarian,98.9 nM
same,GI50,OVCAR-3 ovarian,4.4 nM
same,TGI,OVCAR-3 ovarian,34 nM
same,GI50,OVCAR-4 ovarian,7.24 nM
same,TGI,OVCAR-4 ovarian,69.9 nM
same,GI50,OVCAR-5 ovarian,12 nM
same,TGI,OVCAR-5 ovarian,67.9 nM
same,GI50,OVCAR-8 ovarian,9.15 nM
same,TGI,OVCAR-8 ovarian,45.3 nM
same,GI50,PC-3 prostate,6.63 nM
same,TGI,PC-3 prostate,116 nM
same,GI50,RPMI-8226 leukemia,3.82 nM
same,TGI,RPMI-8226 leukemia,10.4 nM
same,GI50,RXF 393 renal,4.37 nM
same,TGI,RXF 393 renal,18.6 nM
same,GI50,SF-268 CNS,10.6 nM
same,TGI,SF-268 CNS,41.1 nM
same,GI50,SF-295 CNS,8.91 nM
same,TGI,SF-295 CNS,34.9 nM
same,GI50,SF-539 CNS,3.65 nM
same,TGI,SF-539 CNS,11.5 nM
same,GI50,SK-MEL-2 melanoma,12.4 nM
same,TGI,SK-MEL-2 melanoma,42.9 nM
same,GI50,SK-MEL-28 melanoma,5.3 nM
same,TGI,SK-MEL-28 melanoma,22.5 nM
same,GI50,SK-MEL-5 melanoma,2.58 nM
same,TGI,SK-MEL-5 melanoma,7.77 nM
same,GI50,SK-OV-3 ovarian,6.89 nM
same,TGI,SK-OV-3 ovarian,27.9 nM
same,GI50,SN12C renal,12 nM
same,TGI,SN12C renal,74.2 nM
same,GI50,SNB-19 CNS,4.14 nM
same,TGI,SNB-19 CNS,26.1 nM
same,GI50,SNB-75 CNS,8.15 nM
same,TGI,SNB-75 CNS,24.7 nM
same,GI50,SR leukemia,4.05 nM
same,TGI,SR leukemia,11.1 nM
same,GI50,SW-620 colon,8.1 nM
same,TGI,SW-620 colon,49.1 nM
same,GI50,T-47D breast,8.31 nM
same,TGI,T-47D breast,28.8 nM
same,GI50,TK-10 renal,9.23 nM
same,TGI,TK-10 renal,39.5 nM
same,GI50,U251 CNS,4.43 nM
same,TGI,U251 CNS,26.4 nM
same,GI50,UACC-257 melanoma,11.2 nM
same,TGI,UACC-257 melanoma,37.9 nM
same,GI50,UACC-62 melanoma,6.99 nM
same,TGI,UACC-62 melanoma,23.5 nM
same,GI50,UO-31 renal,5.43 nM
same,TGI,UO-31 renal,33.5 nM
